# Calls of active or inactive are those of the source. No cut-off for these calls is given here.
# Legend:
# A549 [1] = test: Cytotoxicity against human A549 cells assessed as growth level at 10 uM after 48 hrs by SRB assay; assay type: functional
# NCI-H226 = test: Cytotoxicity against human NCI-H226 cells assessed as growth level at 10 uM after 48 hrs by SRB assay; assay type: functional
# NCI-H460 = test: Cytotoxicity against human NCI-H460 cells assessed as growth level at 10 uM after 48 hrs by SRB assay; assay type: functional
# NCI-H522 = test: Cytotoxicity against human NCI-H522 cells assessed as growth level at 10 uM after 48 hrs by SRB assay; assay type: functional
# [2] = Cytotoxicity against human HCT15 cells assessed as growth level at 10 uM after 48 hrs by SRB assay; assay type: functional, HCT-15
# [3] = Cytotoxicity against human SF295 cells assessed as growth level at 10 uM after 48 hrs by SRB assay; assay type: functional, SF-295
# [4] = Cytotoxicity against human SF539 cells assessed as growth level at 10 uM after 48 hrs by SRB assay; assay type: functional, SF-539
# M14 [5] = test: Cytotoxicity against human M14 cells assessed as growth level at 10 uM after 48 hrs by SRB assay; assay type: functional
# SK-MEL-28 [6] = test: Cytotoxicity against human SK-MEL-28 cells assessed as growth level at 10 uM after 48 hrs by SRB assay; assay type: functional
# [7] = Cytotoxicity against human OVCAR3 cells assessed as growth level at 10 uM after 48 hrs by SRB assay; assay type: functional, OVCAR-3
# [8] = Cytotoxicity against human SKOV3 cells assessed as growth level at 10 uM after 48 hrs by SRB assay; assay type: functional, SK-OV-3
# ACHN = test: Cytotoxicity against human ACHN cells assessed as growth level at 10 uM after 48 hrs by SRB assay; assay type: functional
# [9] = Cytotoxicity against human PC3 cells assessed as growth level at 10 uM after 48 hrs by SRB assay; assay type: functional, PC-3
# [10] = Cytotoxicity against human DU145 cells assessed as growth level at 10 uM after 48 hrs by SRB assay; assay type: functional, DU-145
# MCF7 = test: Cytotoxicity against human MCF7 cells assessed as growth level at 10 uM after 48 hrs by SRB assay; assay type: functional
# MDA-MB-231 [11] = test: Cytotoxicity against human MDA-MB-231 cells assessed as growth level at 10 uM after 48 hrs by SRB assay; assay type: functional
# [12] = Cytotoxicity against human BT549 cells assessed as growth level at 10 uM after 48 hrs by SRB assay; assay type: functional, BT-549
# [13] = Cytotoxicity against human HL-60(TB) cells assessed as growth level at 10 uM after 48 hrs by SRB assay; assay type: functional
# K562 = test: Cytotoxicity against human K562 cells assessed as growth level at 10 uM after 48 hrs by SRB assay; assay type: functional
# A549 [14] = test: Cytotoxicity against human A549 cells assessed as growth inhibition at 10 uM after 48 hrs by SRB assay; assay type: functional; conditions: A549, 48 h, read-out: GI
# EKVX = test: Cytotoxicity against human EKVX cells assessed as growth inhibition at 10 uM after 48 hrs by SRB assay; assay type: functional
# [15] = Cytotoxicity against human HOP62 cells assessed as growth inhibition at 10 uM after 48 hrs by SRB assay; assay type: functional; conditions: HOP-62, 48 h, read-out: GI
# [16] = Cytotoxicity against human COLO205 cells assessed as growth inhibition at 10 uM after 48 hrs by SRB assay; assay type: functional; conditions: COLO 205, 48 h, read-out: GI
# [17] = Cytotoxicity against human HCT116 cells assessed as growth inhibition at 10 uM after 48 hrs by SRB assay; assay type: functional; conditions: HCT-116, 48 h, read-out: GI
# KM12 = test: Cytotoxicity against human KM12 cells assessed as growth inhibition at 10 uM after 48 hrs by SRB assay; assay type: functional; conditions: KM12, 48 h, read-out: GI
# [18] = Cytotoxicity against human SNB19 cells assessed as growth inhibition at 10 uM after 48 hrs by SRB assay; assay type: functional; conditions: SNB-19, 48 h, read-out: GI
# [19] = Cytotoxicity against human SNB75 cells assessed as growth inhibition at 10 uM after 48 hrs by SRB assay; assay type: functional; conditions: SNB-75, 48 h, read-out: GI
# U-251 = test: Cytotoxicity against human U251 cells assessed as growth inhibition at 10 uM after 48 hrs by SRB assay; assay type: functional; conditions: U-251, 48 h, read-out: GI
# M14 [20] = test: Cytotoxicity against human M14 cells assessed as growth inhibition at 10 uM after 48 hrs by SRB assay; assay type: functional; conditions: M14, 48 h, read-out: GI
# SK-MEL-28 [21] = test: Cytotoxicity against human SK-MEL-28 cells assessed as growth inhibition at 10 uM after 48 hrs by SRB assay; assay type: functional; conditions: SK-MEL-28, 48 h, read-out: GI
# [22] = Cytotoxicity against human UACC257 cells assessed as growth inhibition at 10 uM after 48 hrs by SRB assay; assay type: functional; conditions: UACC-257, 48 h, read-out: GI
# [23] = Cytotoxicity against human OVCAR3 cells assessed as growth inhibition at 10 uM after 48 hrs by SRB assay; assay type: functional; conditions: OVCAR-3, 48 h, read-out: GI
# [24] = Cytotoxicity against human OVCAR4 cells assessed as growth inhibition at 10 uM after 48 hrs by SRB assay; assay type: functional; conditions: OVCAR-4, 48 h, read-out: GI
# [25] = Cytotoxicity against human NCI-ADR-RES cells assessed as growth inhibition at 10 uM after 48 hrs by SRB assay; assay type: functional; conditions: read-out: GI
# 786-0 = test: Cytotoxicity against human 786-0 cells assessed as growth inhibition at 10 uM after 48 hrs by SRB assay; assay type: functional; conditions: 786-0, 48 h, read-out: GI
# A498 = test: Cytotoxicity against human A498 cells assessed as growth inhibition at 10 uM after 48 hrs by SRB assay; assay type: functional; conditions: A498, 48 h, read-out: GI
# [26] = Cytotoxicity against human Caki1 cells assessed as growth inhibition at 10 uM after 48 hrs by SRB assay; assay type: functional; conditions: CAKI-1, 48 h, read-out: GI
# [27] = Cytotoxicity against human RXF393 cells assessed as growth inhibition at 10 uM after 48 hrs by SRB assay; assay type: functional; conditions: RXF 393, 48 h, read-out: GI
# SN12C = test: Cytotoxicity against human SN12C cells assessed as growth inhibition at 10 uM after 48 hrs by SRB assay; assay type: functional; conditions: read-out: GI
# [28] = Cytotoxicity against human TK10 cells assessed as growth inhibition at 10 uM after 48 hrs by SRB assay; assay type: functional; conditions: TK-10, 48 h, read-out: GI
# [29] = Cytotoxicity against human UO31 cells assessed as growth inhibition at 10 uM after 48 hrs by SRB assay; assay type: functional; conditions: UO-31, 48 h, read-out: GI
# MDA-MB-231 [30] = test: Cytotoxicity against human MDA-MB-231 cells assessed as growth inhibition at 10 uM after 48 hrs by SRB assay; assay type: functional; conditions: MDA-MB-231, 48 h, read-out: GI
# T47D = test: Cytotoxicity against human T47D cells assessed as growth inhibition at 10 uM after 48 hrs by SRB assay; assay type: functional; conditions: read-out: GI
compound,measurement,setting,value
C=C1CC[C@@H]2[C@](C)(COC(C)=O)[C@H](OC(C)=O)CC[C@@]2(C)[C@@H]1CC(Nc1ccc(S(=O)(=O)NC(C)=O)cc1)C1=CCOC1=O (mixture of isomers),Activity,A549 [1],27.95%
same,Activity,NCI-H226,-52.34%
same,Activity,NCI-H460,5.29%
same,Activity,NCI-H522,-63.21%
same,Activity,[2],-49.53%
same,Activity,[3],58.44%
same,Activity,[4],-76.71%
same,Activity,M14 [5],-35.08%
same,Activity,SK-MEL-28 [6],-36.62%
same,Activity,[7],-87.71%
same,Activity,[8],67.34%
same,Activity,ACHN,-63.23%
same,Activity,[9],0.69%
same,Activity,[10],0.37%
same,Activity,MCF7,-33.6%
same,Activity,MDA-MB-231 [11],-38.71%
same,Activity,[12],-62.63%
same,Activity,[13],-31.09%
same,Activity,K562,4.81%
C=C1CC[C@@H]2[C@](C)(COC(C)=O)[C@H](OC(C)=O)CC[C@@]2(C)[C@@H]1C/C=C1/C(=O)OC[C@H]1OC(C)=O,Activity,A549 [1],85.77%
same,Activity,NCI-H226,23.61%
same,Activity,NCI-H460,98.04%
same,Activity,NCI-H522,-41.64%
same,Activity,[2],-23.04%
same,Activity,[3],95.02%
same,Activity,[4],8.54%
same,Activity,M14 [5],35.37%
same,Activity,SK-MEL-28 [6],37.78%
same,Activity,[7],-21.32%
same,Activity,[8],101.37%
same,Activity,ACHN,19.55%
same,Activity,[9],88.46%
same,Activity,[10],50.88%
same,Activity,MCF7,22.9%
same,Activity,MDA-MB-231 [11],95.84%
same,Activity,[12],27.38%
same,inhibition of growth at 10 µM,A549 [14],14.2%
same,growth inhibition (GI),EKVX,inactive
same,inhibition of growth at 10 µM,[15],24.2%
same,inhibition of growth at 10 µM,[16],78%
same,inhibition of growth at 10 µM,[17],37.3%
same,inhibition of growth at 10 µM,KM12,47.2%
same,inhibition of growth at 10 µM,[18],17%
same,inhibition of growth at 10 µM,[19],55.1%
same,inhibition of growth at 10 µM,U-251,46%
same,inhibition of growth at 10 µM,M14 [20],64.6%
same,inhibition of growth at 10 µM,SK-MEL-28 [21],62.2%
same,inhibition of growth at 10 µM,[22],33.5%
same,inhibition of growth at 10 µM,[23],21.3%
same,inhibition of growth at 10 µM,[24],33.5%
same,inhibition of growth at 10 µM,[25],75%
same,inhibition of growth at 10 µM,786-0,10.9%
same,inhibition of growth at 10 µM,A498,9.43%
same,inhibition of growth at 10 µM,[26],18.5%
same,inhibition of growth at 10 µM,[27],7.35%
same,inhibition of growth at 10 µM,SN12C,66.6%
same,inhibition of growth at 10 µM,[28],83.1%
same,inhibition of growth at 10 µM,[29],37.2%
same,inhibition of growth at 10 µM,MDA-MB-231 [30],4.16%
same,inhibition of growth at 10 µM,T47D,57.2%
same,Activity,[13],79.11%
same,Activity,K562,11.07%

# From ChEMBL document CHEMBL3734705, “Synthesis and in vitro cytotoxicity of novel C-12 substituted-14-deoxy-andrographolide derivatives as potent anti-cancer agents” (2015)
